According to patent US20180250284A1, “QUINOLINE DERIVATIVES FOR USE IN TREATING LEUKODYSTROPHY AND TREATMENT METHOD” (GEORG-AUGUST-UNIVERSITÄT GÖTTINGEN STIFTUNG ÖFFENTLICHEN …, priority 2015, published 2018):

Key:
[1] = system: Cnp-Cre Pex5^fl/fl Rag1^−/− mice; assay: balanced beam test (motor coordination / walking ability); format: in vivo; settings: 25 mg/kg oral gavage 6 out 7 days/week from age 6 weeks to month 6; vs H2O treated controls; significant from the age of 4 months
Description: Cnp-Cre Pex5^fl/fl Rag1^−/− mice received either H2O (Ctrl, n=18) or laquinimod (25 mg/kg, n=11) at 6 out 7 days/week by oral gavage. Treatment was initiated at the age of 6 weeks. Unpaired t test, **<0.01; ***<0.001. Cnp-Cre Pex5^fl/fl Rag1^−/− mice were generated by crossbreeding of Cnp-Cre Pex5^fl/fl mice with Rag1^−/− mice. Mice of both sexes received 25 mg/kg Laquinimod or water by oral gavage 6 out 7 days/week and treatment was initiated at the age of 6 weeks. Motor coordination was assessed with a balanced beam test. Mice were put on a beam (width 1.5 cm) and allowed to run toward a hiding box. After a training period, the time to pass a distance of 0.6 m was measured (three repeats per time point).

[2] = system: Cnp-Cre Pex5^fl/fl Rag1^−/− mice; assay: histological and morphological analyses of the corpus callosum at month 6; format: in vivo; settings: 25 mg/kg oral; for extent of demyelination / myelin loss in the corpus callosum: luxol fast blue, vs vehicle/water treated mice
Description: FIG. 2: Quantification of axonal damage (APP), microglia/macrophage cell numbers (Mac3), demyelination and adult oligodendrocytes (NogoA) in the corpus callosum (CC) of CNP-Cre Pex^fl/fl RAG1^−/− mice at the age of 6 months. Cnp-Cre Pex5^fl/fl Rag1^−/− mice were generated by crossbreeding of Cnp-Cre Pex5^fl/fl mice with Rag1^−/− mice. Mice of both sexes received 25 mg/kg Laquinimod or water by oral gavage 6 out 7 days/week and treatment was initiated at the age of 6 weeks. Mice were perfused transcardially at month 6 with cold PBS followed by 4% paraformaldehyde (PFA). Brains and spinal cords were post-fixed for 2 days and then paraffin-embedded. Sections between 0.5-1 μm were cut and processed for immunohistochemistry (IHC) according to standard protocols. Demyelination was evaluated on sections stained with luxol fast blue (LFB). For the staining of macrophages the antibody MAC387 (mouse anti-L1 antibody MAC387, GeneTex, 1:150) was used. Axonal density was evaluated on Bielschowsky silver stained sections. That is, in order to identify the mechanisms how laquinimod is beneficial in the CNP-Cre Pex^fl/fl RAG1^−/− mouse model, we analyzed and quantified the extent of demyelination, axonal damage and macrophage and adult oligodendrocyte numbers in immunohistochemically stained sections of the corpus callosum at month 6 in laquinimod and vehicle treated mice. […] The extent of demyelination was diminished and the numbers of preserved adult oligodendrocytes were increased, see FIG. 2.

[3] = system: microglia cells stimulated with 1 μg/ml LPS and 5 mM ATP; assay: IL1β ELISA of supernatants of LPS/ATP stimulated microglia cells; format: cell-based; settings: at high concentrations of laquinimod
Description: FIG. 3: Titration of laquinimod to microglia cells stimulated with 1 μg/ml LPS and 5 mM ATP. Microglia cell supernatants were analyzed for IL1β by ELISA.

[4] = system: Knockout mice (Cnp-Pex5, Cnp1-Cre*PEX5flox/flox, Pex5^flox/flox*Cnp-Cre/+, Nestin-Pex5, NEX-Pex5, GFAP-Pex5^−/−); assay: effect of various doses of laquinimod on Pex5 knockout mice; format: in vivo
Description: Knockout mice of one or more of the following strains are used: Cnp-Pex5, Cnp1-Cre*PEX5flox/flox, Pex5^flox/flox*Cnp-Cre/+, Nestin-Pex5, NEX-Pex5, and GFAP-Pex5^−/−.
The effect of various doses of laquinimod on knockout mice is assessed.

[5] = system: Patients with leukodystrophy; assay: trial of laquinimod in leukodystrophy human patients; format: in vivo; settings: capsules orally once daily
Description: A trial is conducted to evaluate the safety, tolerability and clinical effect of laquinimod in leukodystrophy human patients. Patients with leukodystrophy are enrolled. The patient has been affirmatively diagnosed to have leukodystrophy. […] Capsule(s) containing laquinimod and/or matching placebo are administered orally once daily at dosages approved by the study Safety Committee. Patients are randomized into one of the treatment arms in a ratio that allows for reaching an overall target enrollment.

Patients with PBD = assay: trial of laquinimod for PBD in human patients; format: in vivo
Description: A trial is conducted to evaluate the safety, tolerability and clinical effect of laquinimod for PBD in human patients. Patients with PBD are enrolled. The patient has been affirmatively diagnosed to have PBD. […] Capsule(s) containing laquinimod and/or matching placebo are administered orally once daily at dosages approved by the study Safety Committee. Patients are randomized into one of the treatment arms in a ratio that allows for reaching an overall target enrollment.

[6] = in vivo; cited from earlier work
[7] = system: multiple sclerosis (MS) patients; settings: two phase III trials; cited from earlier work
cuprizone model = settings: cited from earlier work
EAE model = settings: cited from earlier work
[8] = age of 6 months, vs vehicle treated mice
[9] = capsules orally once daily, human patients

## CCN(C(=O)c1c(O)c2c(Cl)cccc2n(C)c1=O)c1ccccc1 [laquinimod, 5-chloro-N-ethyl-4-hydroxy-1-methyl-2-oxo-N-phenyl-1,2-dihydroquinoline-3-carboxamide]
[1]
  walking ability / motor coordination on elevated beam test: significantly better
[2]; age of 6 months
  extent of demyelination / myelin loss in the corpus callosum: less extensive
[2]; age of 6 months, listed as Laquinimod
  extent of demyelination / myelin loss in the corpus callosum: diminished
[2]; [8]
  axonal damage (APP positive axons) in the corpus callosum: significantly reduced
  microglia/macrophage cell numbers (Mac3) in the corpus callosum: significantly reduced
  numbers of preserved adult oligodendrocytes (NogoA) in the corpus callosum: increased
[2]; vs water treated controls
  microglia activation: reduced
  preservation of axons (axonal loss): better preserved
[2]; vs water treated controls, listed as Laquinimod
  microglia activation: less abundant
[3]
  amount of IL1β in LPS stimulated microglia cell cultures: significantly reduced
[4]
  accumulation of lipid droplets and VLCFA, depletion of plasmalogens, impairment of myelin, axonal degeneration, astrogliosis, and/or microgliosis: reduces
  cognitive function: improves
  hindlimb ataxia, kyphosis, hindlimb paresis, forelimb ataxia, tremor, hindlimb paralysis, and/or passiveness: reduces
  motor function: improves
[5]
  motor symptoms of leukodystrophy: alleviates or eliminates
  one or more symptoms of leukodystrophy: alleviates or eliminates
Patients with PBD; [9]
  motor symptoms of PBD: alleviates or eliminates
  one or more symptoms of PBD: alleviates or eliminates
Patients with PBD; humans, Example 3.1
  symptoms of Zellweger Syndrome (ZS): alleviates or eliminates
Patients with PBD; humans, Example 3.2
  symptoms of Neonatal Adrenoleukodystrophy (NALD): alleviates or eliminates
Patients with PBD; humans, Example 3.3
  symptoms of Infantile Refsum Disease (IRD): alleviates or eliminates
[6]
  oral bioavailability: high
[7]
  safety and tolerability profile: favorable
Cuprizone model
  demyelination: reduces
  microglia and astrocyte activation: inhibits
EAE model
  axonal injury: reduces
  microglia and astrocyte activation: inhibits
